Measured values: US20220186188A1, “Method for Obtaining Pancreatic Progenitor Cells and Pancreatic Islet Beta Cells By Means of Differentiation of Human Pluripotent Stem Cells” (Asia Regenerative Medicine, Ltd., priority 2019, published 2022)

Columns and labels:
[1] = tested on: pancreatic progenitor cells differentiated from human induced pluripotent stem cells; test: Flow cytometry detection of PDX1 in the pancreatic progenitor cell stage (human induced pluripotent stem cells); type: cell-based; details: 2 μM inhibitor in pancreatic progenitor cell medium, 5 days, compared with control group without WNT inhibitor
Method: (§1) a pancreatic progenitor cell medium was prepared, the medium in step 1) was replaced with the pancreatic progenitor cell medium, and the cells were cultured in a carbon dioxide incubator at 37 degrees Celsius for 5 days, during which the medium was replaced every day, wherein the composition of the pancreatic progenitor cell medium was: with an MCDB131 medium as a basic medium, and the following components at the working concentrations were further included: 0.5% of bovine serum albumin (BSA), 1.5 g/L of sodium bicarbonate, 1×glutamine (GlutaMAX), 10 mM glucose, […] vitamin C, 1×insulin-transferrin-selenium-ethanolamine additive (ITS-X), 50 ng/ml of fibroblast growth factor (KGF), 0.5 μM SANT1 (with smo as an inhibitor target), 100 nM retinoic acid (TTNPB), 500 nM phorbol 12,13-dibutyrate (PDBu), 2 μM ALK inhibitor (K02288), and 2 μM WNT signaling pathway inhibitor XAV-939 (not added in a control group), with the concentrations all being final concentrations. […]

[2] = tested on: pancreatic progenitor cells and pancreatic islet β cells differentiated from human induced pluripotent stem cells; test: Real-time fluorescence quantitative PCR of PDX1, NKX6-1 and INS mRNA (human induced pluripotent stem cells); type: cell-based; details: qPCR
Method: as §1

[3] = 2 μM inhibitor in pancreatic progenitor cell stage, GAPDH reference

Oc1nc(-c2ccc(C(F)(F)F)cc2)nc2c1CSCC2 [XAV-939]
PDX1-positive pancreatic progenitor cells (flow cytometry) [1]: significantly increased
transcription level of the insulin gene INS in the mature pancreatic islet β cell stage ([2]; 2 μM inhibitor added in pancreatic progenitor cell stage): greatly increased
relative expression of mRNA of NKX6-1 in pancreatic progenitor cells [2, 3]: significantly increased
relative expression of mRNA of PDX1 in pancreatic progenitor cells [2, 3]: significantly increased
